According to US7786165B2, “Aminophenylpropanoic acid derivative” (Takeda Pharmaceutical Company Limited, priority 2004, dated 2010):
Structures can show the parent of a compound that is named as a salt.

Biological target: T1, human GPR40 (Homo sapiens, UniProt O14842)
T1 construct: expressed in transfected cells; host or cells: CHO cell line stably expressing human GPR40
Experiment: Determination of EC50 for human GPR40: intracellular calcium change by FLIPR in CHO cells stably expressing human GPR40
Format: cell-based
Settings: CHO cell line stably expressing human GPR40, changes in intracellular calcium concentration, Fluo3-AM, read-out: EC50 (Receptor Function Modulating Action On GPR40)
Description: Determination of EC50 of the Compound of the Present Invention for Human GPR40
For determination of EC50, CHO cell line that stably expressed human GPR40 was used. Unless otherwise indicated, the CHO cell line was cultured using α-MEM medium (Invitrogen) containing 10% fetal calf serum (Invitrogen).
The cells cultured to nearly confluent were rinsed with PBS (Invitrogen) on the previous day of the assay, peeled off with 0.05% Trypsin-EDTA solution (Invitrogen) and recovered by centrifugation. The number of the obtained cells was counted, and the cells were diluted such that 3×10^5 cells were contained per 1 mL of the medium, dispensed to a black welled 96-well plate (coster) by 100 μL per well and cultured overnight in a CO2 incubator. Various test compounds were added to the CHO cells thus prepared, and the changes in the intracellular calcium concentration were measured using FLIPR (Molecular Device). The below-mentioned pre-treatment was applied to measure changes in the intracellular calcium concentration by FLIPR.
First, an assay buffer for adding a fluorescence dye Fluo3-AM (DOJIN) to the cells, or for washing the cells immediately before FLIPR assay was prepared. To a solution of HBSS (Invitrogen, 1000 mL) to which 1M HEPES (pH 7.4, DOJIN, 20 mL) added (hereinafter HBSS/HEPES solution) was added a solution (10 mL) obtained by dissolving probenecid (Sigma, 710 mg) in 1N NaOH (5 mL), and adding and mixing an HBSS/HEPES solution (5 mL), and the resulting solution was used as an assay buffer. Next, Fluo3-AM (50 μg) was dissolved in dimethylsulfoxide (Wako, 21 μL), and an equivalent amount of 20% pluronic acid (Molecular Probes) was added and mixed. The solution was added to the assay buffer (10.6 mL) supplemented with fetal vovine serum (105 μL) to give a fluorescence dye solution. The medium of the CHO cells inoculated to the black welled 96-well plate on the previous day of assay was removed, the fluorescence dye solution was immediately dispensed by 100 μL per well and the cells were cultured in a CO2 incubator for 1 hr to allow intake of the fluorescence dye by the cells. The cells after the culture were washed with the above-mentioned assay buffer and set on FLIPR. The test compound was diluted with dimethylsulfoxide in advance, dispensed to polypropylene 96-well plate (sample plate) by […], and cryopreserved at −20° C. To the thawed sample plate was added an assay buffer containing 0.015% CHAPS (DOJIN) by 198 μL, and simultaneously set on FLIPR together with the cell plate. After the aforementioned pre-treatment, changes in the intracellular calcium concentration upon addition of various test compounds as measured by FLIPR. Based on the results, a dose-response curve of each test compound was formed and EC50 was calculated.

T1 sequence (O14842 whole entry): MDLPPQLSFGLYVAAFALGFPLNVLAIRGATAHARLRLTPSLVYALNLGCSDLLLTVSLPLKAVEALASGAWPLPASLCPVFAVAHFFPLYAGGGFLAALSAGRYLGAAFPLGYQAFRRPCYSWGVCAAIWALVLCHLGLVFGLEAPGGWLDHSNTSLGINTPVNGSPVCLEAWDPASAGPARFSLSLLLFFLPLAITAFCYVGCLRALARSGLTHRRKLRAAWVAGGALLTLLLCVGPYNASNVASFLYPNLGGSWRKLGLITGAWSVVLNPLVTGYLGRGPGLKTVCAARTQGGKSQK

O=C(O)CCc1ccc(NCc2ccc(Cn3nc(-c4ccccc4)cc3-c3ccccc3)cc2)cc1 [Example 44, 3-[4-({4-[(3,5-diphenyl-1H-pyrazol-1-yl)methyl]benzyl}amino)phenyl]propanoic acid] and O=C(O)CCc1ccc(NCc2ccc(Cn3c(-c4ccccc4)cc4ccccc43)cc2)cc1 [Example 12, 3-[4-({4-[(2-phenyl-1H-indol-1-yl)methyl]benzyl}amino)phenyl]propanoic acid hydrochloride] cannot be ordered by EC50: under 100 nM for the first, under 100 nM for the second.

COc1cccc(Oc2cc(C)c(-c3cccc(CNc4ccc(CCC(=O)O)c(F)c4)c3)c(C)c2)n1 [Example 164, 3-{2-fluoro-4-[({4′-[(6-methoxypyridin-2-yl)oxy]-2′,6′-dimethylbiphenyl-3-yl}methyl)amino]phenyl}propanoic acid dihydrochloride] and Cc1cc(OS(C)(=O)=O)cc(C)c1-c1cccc(CNc2ccc(CCC(=O)O)c(F)c2)c1 [Example 123, 3-{4-[({2′,6′-dimethyl-4′-[(methylsulfonyl)oxy]biphenyl-3-yl}methyl)amino]-2-fluorophenyl}propanoic acid] cannot be ordered by EC50: under 100 nM for the first, under 100 nM for the second.

CCOCCOc1cc(C)c(-c2cccc(CNc3ccc4c(c3)OCC4CC(=O)O)c2)c(C)c1 (stereo not shown) [Example 86, [6-({[4′-(2-ethoxyethoxy)-2′,6′-dimethylbiphenyl-3-yl]methyl}amino)-2,3-dihydro-1-benzofuran-3-yl]acetic acid hydrochloride] and CCOCCOc1cc(C)c(-c2cccc(CNc3ccc(CCC(=O)O)c(F)c3)c2)c(C)c1 [Example 40, 3-[4-({[4′-(2-ethoxyethoxy)-2′,6′-dimethylbiphenyl-3-yl]methyl}amino)-2-fluorophenyl]propanoic acid hydrochloride] cannot be ordered by EC50: under 100 nM for the first, under 100 nM for the second.

Cc1ccc(COc2ccc(CNc3ccc(CCC(=O)O)c(F)c3)cc2CC(C)C)cc1 [Example 131, 3-[2-fluoro-4-({3-isobutyl-4-[(4-methylbenzyl)oxy]benzyl}amino)phenyl]propanoic acid] and CC(C)(C)c1cc(COc2ccccc2)n(Cc2ccc(CNc3ccc(CCC(=O)O)c(F)c3)cc2)n1 [Example 169, 3-{4-[(4-{[3-tert-butyl-5-(phenoxymethyl)-1H-pyrazol-1-yl]methyl}benzyl)amino]-2-fluorophenyl}propanoic acid dimethanesulfonate] cannot be ordered by EC50: under 100 nM for the first, under 100 nM for the second.

CCOCCOc1cc(C)c(-c2cccc(CNc3ccc(CC(F)(F)C(=O)O)cc3)c2)c(C)c1 [Example 117, 3-[4-({[4′-(2-ethoxyethoxy)-2′,6′-dimethylbiphenyl-3-yl]methyl}amino)phenyl]-2,2-difluoropropanoic acid] and CCOCCOc1cc(C)c(-c2cccc(CNc3ccc(OCC(=O)O)cc3)c2)c(C)c1 [Example 67, [4-({[4′-(2-ethoxyethoxy)-2′,6′-dimethylbiphenyl-3-yl]methyl}amino)phenoxy]acetic acid] cannot be ordered by EC50: under 100 nM for the first, under 100 nM for the second.

CCCN(Cc1ccc(CNc2ccc(CCC(=O)O)cc2)cc1)c1nc(-c2ccccc2)cs1 [Example 21, 3-{4-[(4-{[(4-phenyl-1,3-thiazol-2-yl)(propyl)amino]methyl}benzyl)amino]phenyl}propanoic acid] and O=C(O)CCc1ccc(NCc2ccc(CN(CCc3ccccc3)c3nc(-c4ccccc4)cs3)cc2)cc1 [Example 18, 3-{4-[(4-{[(2-phenylethyl)(4-phenyl-1,3-thiazol-2-yl)amino]methyl}benzyl)amino]phenyl}propanoic acid] cannot be ordered by EC50: under 100 nM for the first, under 100 nM for the second.

CC(C)(C)c1cc(-c2ccccc2)n(Cc2ccc(CNc3ccc(CCC(=O)O)c(F)c3)cc2)n1 [Example 107, 3-[4-({4-[(3-tert-butyl-5-phenyl-1H-pyrazol-1-yl)methyl]benzyl}amino)-2-fluorophenyl]propanoic acid] and Cc1cccc(C)c1-c1cc(CNc2ccc(CCC(=O)O)c(F)c2)cc(OCc2ccccc2)c1 [Example 105, 3-[4-({[5-(benzyloxy)-2′,6′-dimethylbiphenyl-3-yl]methyl}amino)-2-fluorophenyl]propanoic acid methanesulfonate] cannot be ordered by EC50: under 100 nM for the first, under 100 nM for the second.

Cc1cc(OC2CCS(=O)(=O)CC2)cc(C)c1-c1cccc(CNc2ccc(CCC(=O)O)c(F)c2)c1 [Example 204, 3-{4-[({4′-[(1,1-dioxidotetrahydro-2H-thiopyran-4-yl)oxy]-2′,6′-dimethylbiphenyl-3-yl}methyl)amino]-2-fluorophenyl}propanoic acid methanesulfonate] and Cc1cc(OCC2(C)COC2)cc(C)c1-c1cccc(CNc2ccc(CCC(=O)O)c(F)c2)c1 [Example 151, 3-{4-[({2′,6′-dimethyl-4′-[(3-methyloxetan-3-yl)methoxy]biphenyl-3-yl}methyl)amino]-2-fluorophenyl}propanoic acid methanesulfonate] cannot be ordered by EC50: under 100 nM for the first, under 100 nM for the second.

CCOCCS(=O)(=O)c1cc(C)c(-c2cccc(CNc3ccc(CCC(=O)O)c(F)c3)c2)c(C)c1 [Example 184, 3-{4-[({4′-[(2-ethoxyethyl)sulfonyl]-2′,6′-dimethylbiphenyl-3-yl}methyl)amino]-2-fluorophenyl}propanoic acid] and CCN(CC)C(=O)COc1cc(C)c(-c2cccc(CNc3ccc(CCC(=O)O)c(F)c3)c2)c(C)c1 [Example 98, 3-{4-[({4′-[2-(diethylamino)-2-oxoethoxy]-2′,6′-dimethylbiphenyl-3-yl}methyl)amino]-2-fluorophenyl}propanoic acid] cannot be ordered by EC50: under 100 nM for the first, under 100 nM for the second.

Cc1cccc(C)c1-c1cccc2c1CCC2Nc1ccc(CCC(=O)O)c(F)c1 (stereo not shown) [Example 218, 3-(4-{[4-(2,6-dimethylphenyl)-2,3-dihydro-1H-inden-1-yl]amino}-2-fluorophenyl)propanoic acid] and Cc1cccc(C)c1-c1cccc(CNc2ccc(CCC(=O)O)cc2)c1 [Example 2, 3-(4-{[(2′,6′-dimethylbiphenyl-3-yl)methyl]amino}phenyl)propanoic acid] cannot be ordered by EC50: under 100 nM for the first, under 10 nM for the second.

CCOCCOc1ccc(-c2cc(CNc3ccc(CCC(=O)O)cc3)ccc2OCc2ccccc2)cc1 [Example 70, 3-[4-({[6-(benzyloxy)-4′-(2-ethoxyethoxy)biphenyl-3-yl]methyl}amino)phenyl]propanoic acid] and CCOCCOc1ccc(-c2cc(CNc3ccc(CCC(=O)O)cc3)ccc2OC(C)C)cc1 [Example 127, 3-[4-({[4′-(2-ethoxyethoxy)-6-isopropoxybiphenyl-3-yl]methyl}amino)phenyl]propanoic acid] cannot be ordered by EC50: under 100 nM for the first, under 100 nM for the second.

Cc1cc(OCC2CC2)cc(C)c1-c1cccc(CNc2ccc(CCC(=O)O)cc2)c1 [Example 33, 3-[4-({[4′-(cyclopropylmethoxy)-2′,6′-dimethylbiphenyl-3-yl]methyl}amino)phenyl]propanoic acid hydrochloride] and Cc1cc(OCc2ccccc2)cc(C)c1-c1cccc(CNc2ccc(CCC(=O)O)cc2)c1 [Example 30, 3-[4-({[4′-(benzyloxy)-2′,6′-dimethylbiphenyl-3-yl]methyl}amino)phenyl]propanoic acid hydrochloride] cannot be ordered by EC50: under 100 nM for the first, under 100 nM for the second.

Cn1ncc(COc2ccc(CNc3ccc(CCC(=O)O)cc3)cc2)c1-c1ccc(F)cc1 [Example 47, 3-{4-[(4-{[5-(4-fluorophenyl)-1-methyl-1H-pyrazol-4-yl]methoxy}benzyl)amino]phenyl}propanoic acid] and CCOCCOc1ccc(-c2cc(CNc3ccc(CCC(=O)O)c(F)c3)cc3c2OC(C)(C)C3)cc1 [Example 136, 3-{4-[({7-[4-(2-ethoxyethoxy)phenyl]-2,2-dimethyl-2,3-dihydro-1-benzofuran-5-yl}methyl)amino]-2-fluorophenyl}propanoic acid methanesulfonate] cannot be ordered by EC50: under 1000 nM for the first, under 100 nM for the second.

O=C(O)CCc1ccc(NC2CCc3c(Oc4ccccc4)cccc32)cc1 (stereo not shown) [Example 212, 3-{4-[(4-phenoxy-2,3-dihydro-1H-inden-1-yl)amino]phenyl}propanoic acid] and CCN(CCOc1cc(C)c(-c2cccc(CNc3ccc(CCC(=O)O)c(F)c3)c2)c(C)c1)C(C)=O [Example 200, 3-(4-{[(4′-{2-[acetyl(ethyl)amino]ethoxy}-2′,6′-dimethylbiphenyl-3-yl)methyl]amino}-2-fluorophenyl)propanoic acid methanesulfonate] cannot be ordered by EC50: under 100 nM for the first, under 100 nM for the second.
